Where a SMILES comes first, the peptide text is derived from it. The star is where a group is joined. X1 = CC(C)CC(CP(=O)(O)[C@@H](N)CCc1ccccc1)C(=O)*
Experiments:
[1] = target: Endoplasmic Reticulum Aminopeptidase 1 (ERAP1) (UniProt Q9NZ08)
[2] = system: HLA-B*08; experiment: Kinetic stability of complex by competition with SYPRO Orange (peptide dissociation); type: binding; settings: 37 °C, 8 μM complex, 50X SYPRO Orange dye (4 μL in 20 μL), excitation 533 nm, emission 572 nm, non-covalent complex, each data point average of two repetitions
Procedure: (§1) The assay was performed in the Lightcycler 96 RT-PCR instrument as previously reported. Reaction mixtures (total volume 20 μL) consisted of 16 μL protein complex (final concentration 8 μΜ) and 4 μL of 50X SYPRO Orange dye (Sigma–Aldrich, S5692). Excitation wavelength was set at 533 nm and emission at 572 nm. The temperature was set at 37 °C for the duration of the experiment.

[3] = target: T1, ERAP1 (Homo sapiens, UniProt Q9NZ08); experiment: Fluorigenic enzymatic assay: inhibition of ERAP1 hydrolysis of Leu-AMC; type: biochemical
T1 construct: inferred from the nickel-NTA purification; made in house; host or cells: Hi5 insect cells, recombinant baculovirus
Procedure: Expression and purification of ERAP1 was performed as described previously. Briefly, ERAP1 was expressed in Hi5 insect cells after infection with recombinant baculovirus at 27 °C. Protein was isolated by affinity chromatography using nickel-nitrilotriacetic acid–agarose beads. Protein aliquots were kept at − 80 °C in Hepes/NaCl buffer pH 7.0 supplemented with 10% (v/v) glycerol, until needed.
ERAP1 enzymatic activity and inhibitor IC50 values were calculated as previously reported. Briefly, hydrolysis of the fluorescent substrate leucine-aminomethylcoumarin (Leu-AMC, Sigma–Aldrich, L2145) was followed at 460 nm (excitation at 380 nm) using a Spark 10 M (TECAN) multimode microplate reader. The IC50 of DG080 was calculated by using the equation log (inhibitor) versus response-variable slope of GraphPad Prism 8.0™.

[4] = target: T2, HLA-B*08(E76C) (Homo sapiens, UniProt P01889, A93T/A95T/D138N/E100C/E176V/E187T/K202T/Q94N/R180D/S35A/V36M/Y33D/Y91F); experiment: Peptide exchange with excess 9mer […] (AI9), native-PAGE; type: binding
T2 construct: made in house
Procedure: Separating gel was prepared by mixing 2.9 mL Tris–HCl 0.375 M pH 8.8 solution, 2 mL acrylamide solution 30%, 100 μL APS 10% w/v and 5 μL TEMED. Stacking gel was formed by mixing 2.14 mL Tris–HCl 0.375 M pH 8.8 solution, 0.34 mL acrylamide solution 30%, 50 μL APS 10% w/v and 5 μL TEMED. Sample loading buffer was formed by mixing 62.5 mM Tris–HCl pH 6.8 solution, 25% v/v glycerol and 1% v/v bromophenol blue solution. Running buffer consists of 25 mM Tris-base and 192 mM glycine. Electrophoresis is conducted at 4 °C, 100 V for 5 h. 1,5 µg of MHC I-peptide complexes and 3 µg of ERAP1 were used.

[5] = target: T1, ERAP1; experiment: ERAP1 trimming of MHCI-bound peptide followed by native-PAGE; type: biochemical
[6] = target: T1, ERAP1; experiment: ERAP1 ternary complex formation, native-PAGE band shift; type: binding; settings: equimolar mixture of ERAP1 and complex
Description: The phosphinic head of the DG080 pseudopeptide should provide it with high affinity for the active site of ERAP1. To validate this assumption, we mixed free DG080 with ERAP1 and followed ERAP1 activity using the small fluorigenic substrate L-Leucine-7-amido-4-methylcoumarin (Leu-AMC)[24]. […] Due to the low amounts of complex available, we performed assays at a fixed concentration of 1 μΜ for both free DG080 and HLA-B*08(E76C)-DG080 complex. At that concentration, free DG080 was able to inhibit almost 90% of ERAP1 activity, consistent with its measured IC50. […] We conclude that although DG080 in solution has full access to the ERAP1 active site, DG080 covalently bound onto HLA-B*08 has very limited access to the active site of ERAP1, possibly due to steric hindrances that limit a proper binding orientation necessary so that the ERAP1 active site can approach the MHCI binding groove. To validate the stability of the HLA-B*08(E76C)-DG080 versus ERAP1 trimming or peptide exchange, we first incubated the complex with 20 nM ERAP1 at 37 °C for 1 h and analyzed the sample by native-PAGE (Fig. 4C). […] To further explore a potential interaction between ERAP1 and the phosphinic N-terminus of the peptide bound onto HLA-B*08, we analyzed an equimolar mixture of ERAP1 with HLA-B*08(E76C)-DG080 by native PAGE (Fig. 4D). […]

[7] = target: HLA-B*08:01(E76C) (Homo sapiens, UniProt P01889, A93T/A95T/D138N/E176V/E187T/K202T/Q94N/R180D/S35A/V36M/Y33D/Y91F); experiment: Thermal shift assay (DSF), melting temperature of HLA-B*08(E76C)/peptide complex; type: physicochemical; settings: purified complex, Fig. 1F three repetitions shown
Procedure: The assay as well as the calculation of the melting temperature (Tm) of the complexes HLA-B*08:01(E76C)-DG080 and HLA-B*08:01(E76C)-AI12Cys were performed as previously reported.

[8] = target: T2, HLA-B*08(E76C); experiment: Kinetic stability of complex by competition with SYPRO Orange (peptide dissociation); type: binding; settings: 37 °C
Procedure: as §1

[9] = target: T1, ERAP1; experiment: ERAP1 trimming of MHCI-bound peptide followed by MALDI-TOF-MS; type: biochemical; settings: 20 nM or 100 nM ERAP1; stopped with TFA; 100 mM DTT added to free peptide
Procedure: To confirm the above finding we followed the trimming reaction by MALDI-TOF–MS which allows the concurrent detection of several peptide species. HLA-B*08(E76C)- […] was incubated with either 20 nM or 100 nM of ERAP1 and the reaction was stopped by the addition of TFA and flash-frozen. MALDI-TOF–MS analysis was performed as described before, but with the addition of 100 mM DTT to reduce the disulfide linkage to the complex so that the freed peptide can be detected (Fig. 2D).
Detection of peptides bound onto ΗLA-B*08:01 by MALDI-TOF–MS was performed as previously described[17] with the exception that 100 mM DTT was added to 10 μL samples of ΗLA-B*08:01(E76C) protein complexes to break the disulfide bond and allow detection of the peptide.

[10] = target: T1, ERAP1; settings: cited from earlier work
[11] = target: HLA-B*08:01 (Homo sapiens, UniProt P01889, A93T/A95T/D138N/E176V/E187T/K202T/Q94N/R180D/S35A/V36M/Y33D/Y91F); settings: cited from earlier work
[12] = target: T1, ERAP1; settings: cited from earlier work; remark: listed apart in the source
[13] = system: HLA-B*08; settings: non-covalently linked peptide, with AI9; cited from earlier work
[14] = 20 nM ERAP1, up to 2 h (0–120 min)

Molecule: phosphinic pseudopeptide DG080, hFΨ[P(O)(OH)CH2]…
- inhibition of ERAP1 hydrolysis of Leu-AMC by titrated free DG080, IC50 [1]: 350 nM
- inhibition of ERAP1 hydrolysis of the fluorigenic substrate at a fixed 1 μΜ of free DG080 [1]: 90%

Molecule: ARAALRSRYWAI [listing 1 of 2 here]
- half-life of complex (t1/2) [2]: 7 ± 1 min

Molecule: CC(C)CC(CP(=O)(O)[C@@H](N)CCc1ccccc1)C(=O)NCC(=O)N[C@@H](CO)C(=O)NCC(=O)N[C@@H](CO)C(=O)NCC(=O)N[C@@H](CO)C(=O)N[C@@H](C)C(=O)N[C@@H](C)C(=O)N[C@@H](CCCCN)C(=O)N[C@@H](CCCCN)C(=O)N[C@@H](CCCCN)C(=O)N[C@@H](Cc1ccc(O)cc1)C(=O)N[C@@H](CS)C(=O)N[C@@H](CC(C)C)C(=O)O (stereo partly shown) [DG080] (X1-GSGSGSAAKKKYCL-OH)
- inhibition at 1 µM ([3]; free peptide, 1 μM, Leu-AMC hydrolysis, two measurements): ~90%
- IC50 ([3]; free peptide, substrate Leu-AMC, excitation 380 nm, emission 460 nm, log(inhibitor) vs response-variable slope, each point average of two measurements): 350 ± 89 nM

Molecule: hFΨ[P(O)(OH)CH2]LGSGSGSAAKKKYCL [HLA-B*08(E76C)-DG080, disulfide-linked HLA-B*08/ phosphinic peptide complex]
- peptide exchange (electrophoretic mobility in native-PAGE) ([4]; excess (100 μM) ALRSRYWAI, 37 °C, 1 h): no change in electrophoretic mobility was evident
- effect on ERAP1 enzymatic activity ([3]; complex, 1 μM, Leu-AMC hydrolysis, two measurements): unable to fully inactivate ERAP1, and had only a marginal effect on its enzymatic activity
- ERAP1 trimming: change in electrophoretic mobility (native-PAGE) ([5]; 20 nM ERAP1, 37 °C, 1 h): No change in electrophoretic mobility was observed
- band shift with ERAP1 (stable ternary complex formation) [6]: No band shifts were evident

Molecule: ARAALRSRYWCI [disulfide-linked HLA-B*08/peptide complex]
- melting temperature (Tm) [7]: 44.0 ± 0.5 °C
- peptide exchange (native-PAGE) in presence of DTT ([4]; 100 μM ALRSRYWAI + DTT (100 μM in Fig. 2B legend), incubation at RT): full exchange of the ARAALRSRYWCI with ALRSRYWAI
- peptide exchange (electrophoretic mobility in native-PAGE) ([4]; excess ALRSRYWAI (100 μM), 60 min at RT, no DTT): did not alter the electrophoretic mobility of the complex in native-PAGE suggesting no peptide exchange
- ERAP1 trimming: change in electrophoretic mobility (native-PAGE) [5, 14]: no change in electrophoretic mobility was observed
- half-life of complex (t1/2) ([8]; SYPRO Orange competition, 8 μM complex, 50X SYPRO Orange dye (4 μL in 20 μL), excitation 533 nm, emission 572 nm, each data point average of three repetitions): 450 ± 38 min
- slowing of dye access to MHC binding groove by covalently linking the peptide ([8]; vs non-covalent HLA-B*08-ARAALRSRYWAI complex): almost 2 orders of magnitude
- time-dependent decrease of 12mer peptide on incubation with ERAP1 (MALDI-TOF-MS) [9]: no time-dependent decrease of the 12mer peptide

Molecule: ARAALRSRYWAI [listing 2 of 2 here]
- ERAP1 trimming half-life, MHCI-bound peptide (native-PAGE) [10]: 18 min
- ERAP1 trimming while bound onto HLA-B*08:01 ([10]; non-covalent complex, compared with solution): ERAP1 can apparently trim this peptide while it is bound onto HLA-B*08:01, albeit slower than in solution
- stability of complex with HLA-B*08:01 [11]: thermodynamically stable but kinetically labile complex
- ERAP1 trimming half-life, MHCI-bound peptide (MALDI-TOF-MS) [12]: 20 to 30 min
- ERAP1 trimming: change in electrophoretic mobility (native-PAGE) [5, 14]: ERAP1 was able to modify the electrophoretic mobility
- peptide exchange (native-PAGE) [13]: similarly to the non-covalently linked AI12 peptide

From paper PMC8363620, “The ERAP1 active site cannot productively access the N-terminus of antigenic peptide precursors stably bound onto MHC class I” (Scientific Reports, 2021)
